Test results reported in publication PMC5333544, “Purification and biochemical characterization of recombinant Persicaria minor β-sesquiphellandrene synthase” (PeerJ, 2017).

Tests used:
PmSTS_Δ24 [1] = target: T1, PmSTS_Δ24 (Persicaria minor, UniProt I6XZ73, K266E, form not given); assay: GC-MS product analysis after hexane extraction; assay type: biochemical; details: overnight incubation; product beta-sesquiphellandrene
T1 construct: N-terminal 24 residues removed from the 562-residue protein; N-terminal His6 tag (pET28b), no cleavage told; E. coli BL21 (DE3); PCR primer codes for Met-AGFKPS start; monomer stated for the full-length enzyme
T1 sequence (I6XZ73 entry or part of it K266E, form open): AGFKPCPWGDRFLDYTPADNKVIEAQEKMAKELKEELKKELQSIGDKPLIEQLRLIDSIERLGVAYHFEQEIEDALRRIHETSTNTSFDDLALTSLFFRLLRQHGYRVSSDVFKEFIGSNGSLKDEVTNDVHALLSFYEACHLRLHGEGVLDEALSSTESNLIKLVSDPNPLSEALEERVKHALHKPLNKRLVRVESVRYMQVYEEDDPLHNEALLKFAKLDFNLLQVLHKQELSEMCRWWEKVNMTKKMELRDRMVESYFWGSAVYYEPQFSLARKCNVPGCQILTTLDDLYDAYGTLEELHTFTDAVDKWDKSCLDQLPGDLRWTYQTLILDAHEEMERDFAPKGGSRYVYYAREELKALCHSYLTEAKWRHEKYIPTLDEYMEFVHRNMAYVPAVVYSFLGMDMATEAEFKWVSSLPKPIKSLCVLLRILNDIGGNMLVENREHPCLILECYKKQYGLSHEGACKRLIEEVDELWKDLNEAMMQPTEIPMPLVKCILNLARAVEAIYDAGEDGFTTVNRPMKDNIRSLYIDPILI

PmSTS_Δ24 [2] = target: T2, PmSTS_Δ24 (Persicaria minor, UniProt I6XZ73); assay: malachite green phosphate assay coupled to inorganic diphosphatase; assay type: biochemical; details: 20 mM HEPES pH 8.0, 10 mM MgCl2, 30 °C, 0.1 µM enzyme, 2–30 µM FPP; read-out: Km app
T2 construct: N-terminal 24 residues removed from the 562-residue protein; N-terminal His6 tag (pET28b), no cleavage told; E. coli BL21 (DE3); PCR primer codes for Met-AGFKPS start; monomer stated for the full-length enzyme
T2 sequence (I6XZ73 entry or part of it, stated change not applied): as the sequence (I6XZ73 entry or part of it K266E, form open) above, with E242K counted along it

Row | Km (PmSTS_Δ24 [2]) [µM] | Structure (SMILES) | GC-MS product analysis after hexane extraction (PmSTS_Δ24 [1])
1 |  | CC(C)=CCC/C(C)=C/CC/C(C)=C/COP(=O)(O)OP(=O)(O)O [farnesyl diphosphate] | mutant protein K266E produced using an E. coli expression system displayed a product profile
2 | 10.2 | CC(C)=CCC/C(C)=C/CC/C(C)=C/CO[P@@](=O)(O)OP(=O)(O)O (stereo in doubt) [farnesyl diphosphate] | 
